Measurements as given in US20240018129A1, “COMPOUNDS AS PU. 1 INHIBITORS” (PEKING UNIVERSITY, priority 2020, published 2024).

Assays:
[1] = tested on: bleomycin-induced pulmonary fibrosis; test: bleomycin-induced pulmonary fibrosis, preventive and therapeutic models; assay type: in vivo, mouse
Procedure: Methods: To evaluate the preventive and therapeutic effects of compound I-1 on pulmonary fibrosis, bleomycin was used to establish two animal models of pulmonary fibrosis with different drug intervention (6-8 weeks, C57BL/6, male). Bleomycin (0.025U, Code.D11063, OKA, China) was injected by a single intratracheal application. Equal volumes of sterilized saline served as a control. (I) Preventive model of bleomycin-induced pulmonary fibrosis. Compounds compound I-1, positive control DB1976, or vehicle (saline) were treated (injected intraperitoneally, i.p.) immediately after single bleomycin injection for 4 weeks (FIG. 4a). (II) Therapeutic model of bleomycin-induced pulmonary fibrosis. Mice were pre-charged with bleomycin for 11 days to induced pulmonary fibrosis, then treated with compounds compound I-1, positive control DB1976, or vehicle (saline) for 17 days, total time is 4 weeks after bleomycin treatment (FIG. 4h). After the last day of treatment of both models, mice were fasted overnight and euthanized. A part of lung was fixed with paraformaldehyde, embedded with paraffin, and then sliced for H&E and Sirius red staining to check pathological features, and Ashcroft scores. Hubner, R. H. et al. Biotechniques 44, 507-511, 514-507, doi:10.2144/000112729 (2008). Another part of lung were collected and stored in −80° C. after liquid nitrogen quick-freezing, RNA isolation (Code.R6934, OMEGA, USA), first cDNA reverse (Code.AT341, TransGen, China), SYBR mix (Code.AQ601, TransGen, China) for Q-PCR (LightCycle96, Roche) to verify several fibrosis-related genes mRNA level, such as, Col1a1 and Col1a2.

NASH diet-induced NASH = NASH diet-induced NASH model; assay type: in vivo, mouse
Description: Methods: To evaluate the potential therapeutic effects of compound I-1 on liver disorders, including liver fat steatosis and accumulation, nonalcoholic fatty liver disease (NAFLD), nonalcoholic steatosis hepatitis (NASH), and liver fibrosis, three mice models (C57BL/6, male, 8 weeks old) were used. (I) NASH diet (Code.TD.160785, ENVIGO, USA)-induced NASH model: All mice were fed with NASH diet for 10 weeks. Mice were then randomly distributed into three groups, and each group was assigned to be injected daily with vehicle, compound I-1 (2.5mpk or 5mpk, i.p.), or DB1976 (2.5mpk, i.p, as a positive control) for another 6 weeks on continuous NASH diet. A group with normal regular diet was treated with vehicle as health control. (II) High-fat diet (HFD) combinate with CCl4 (lower dose)—induced NASH model. Mice were fed with normal regular diet or HFD (kcal fat 60%—D12492, research diets) for 10 weeks, then the HFD mice were divided into two groups randomly based on the rule of minimum weight differences. Each group was assigned to be injected with CCl4 (25% v/v in olive oil, 0.5 mL/kg body weight) or pure olive oil (i.p.) twice a week for 4 weeks. Compound 1-1 or vehicle (saline) were injected (i.p.) once daily for 4 weeks at the same time with CCl4 under continuous HFD. (III) CCl4 (higher dose)—induced liver fibrosis model. Liver fibrosis was induced by CCl4 injection (20% v/v in olive oil, 10 mL/kg body weight) twice a week for 6 weeks, compound I-1 or vehicle are also injected (i.p.) once daily for 6 weeks at the same time with CCl4 application. Ail the mice in the above-mentioned three models were observed daily. After the last day of treatment of all the models, mice were fasted overnight and euthanized. Serum was collected after centrifuging of the whole blood at 4 degrees, and blood biochemistry parameters were tested through automatic biochemical instrument (BS-240VET, Mindray). Part of liver tissues were fixed with paraformaldehyde, embedded with paraffin, and then sliced for H&E or Sirius red staining to check pathological features, and NAFLD scores. Kleiner, D. E. et al. Hepatology 41, 1313-1321, doi:10.1002/hep.20701 (2005). Part of liver tissues were used fresh, embedded in optimum cutting temperature compound, and sectioned. The sections were stained with 0.5% oil red 0 according to standard procedures after fixed in 4% paraformaldehyde in PBS. Another part of liver tissues were collected and stored in −80° C. after liquid nitrogen quick-freezing, RNA. isolation (Code.R6934, OMEGA., USA), first cDNA reverse (Code.AT341, TransGen, China), SYBR mix (Code.AQ601, TransGen, China) for Q-PCR (LightCycler®96, Roche) to verify genes mRNA level, such as, fibrosis-related genes, Col1a1 and Col1a2; inflammation-related genes, IL-6 and IL-1β.

Compound: N=C(N)c1ccc2nc(-c3ccc(NC(=O)[C@@H]4CCCN4C(=O)[C@@H]4CCCN4C(=O)c4ccc(-c5nc6ccc(C(=N)N)cc6[nH]5)cc4)cc3)[nH]c2c1 [Compound I-1, (S)-1-((4-(6-carbamimidoyl-1H-benzo[d]imidazol-2-yl)benzoyl)-L-prolyl)-N-(4-(6-carbamimidoyl-1H-benzo[d]imidazol-2-yl)phenyl)pyrrolidine-2-carboxamide]
- pulmonary fibrosis progress (staining, Ashcroft scores, collagen deposition, Col1a1, Col1a2 mRNA) ([1]; preventive model, 5mpk i.p. for 4 weeks after single bleomycin injection): significantly prevented
- bleomycin-induced pulmonary fibrosis ([1]; therapeutic model, 11 days after bleomycin then 17 days treatment, 5mpk): reversed and impede
- efficacy when comparing with DB1976 (2.5mpk) (NASH diet-induced NASH; 2.5mpk i.p. daily for 6 weeks): lower efficacy
- fat accumulation in liver (NASH diet-induced NASH; 2.5mpk i.p. daily for 6 weeks): decreased
- metabolic disturbance by NASH diet (body weight, liver fat, ALT, LDL-C, TC, IL-6, IL-1β, Col1a1, Col1a2) (NASH diet-induced NASH; 2.5mpk i.p. daily for 6 weeks): tendency to alleviate
- mRNA levels of IL-6, IL-1β and Col1a1, Col1a2 (NASH diet-induced NASH; 2.5mpk i.p. daily for 6 weeks, liver): lower
- metabolic disturbance by NASH diet (body weight, liver fat, ALT, LDL-C, TC, IL-6, IL-1β, Col1a1, Col1a2) (NASH diet-induced NASH; 5mpk i.p. daily for 6 weeks): potently alleviated
